Settings in all cases: 72 h
Test [1] has as its system CAL-148. Put shortly:
(§1)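 For viability, cells received 2.5 µl CellTiter-Blue for 2 h at 37 °C and fluorescence was read at 560/590 nm. Before this, breast cancer cell lines in 20 µl suspension had been incubated for 72 h on 384-well plates pre-loaded with compound dissolved in 5 µl medium. EC50 was obtained from a percent-inhibition dose-response fit censored at the highest concentration, after normalisation of each plate to vehicle and a positive kill control; rows with a zero drug sensitivity score were discarded.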

For test [2], the system named is HCC1143. The method in brief: as §1
Another test deals with Hs578T. The method in brief:
(§2)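 A 20 µl suspension of breast cancer cells was placed in 384-well plates that already contained compound at 5 concentrations in 10-fold steps across a compound-specific 10,000-fold range, and the plates were left for 72 h. CellTox Green fluorescence at 485/520 nm gave cell death, and CellTiter-Glo luminescence, read after 10 min at room temperature, gave viability. Each plate was normalised to 0.1 % DMSO and a positive kill control. EC50 was fitted from the curves and censored at the top concentration.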

For another test, the system named is CAL-85-1. Put shortly: as §2
A further test deals with MDA-MB-468. The method in brief: as §2
The subject of another test is MFM-223. Put shortly: as §2
Test [3] deals with HCC1599. Put shortly:
as §1

Test [4] has as its system CAL-148. Put shortly: as §2
This is another data set of the same source.

Another test deals with DU-4475. Put shortly:
as §2

Another test concerns BT-474. The method in brief: as §2
In a further test the test system is HCC1937. The method in brief: as §2
A further test deals with CAL-120. Put shortly:
as §2

A further test has as its system MDA-MB-436. Put shortly: as §2
In test [5] the test system is HCC1599. Put shortly:
as §2
The source holds these as a separate data set.

Test [6] relates to HCC1143. Put shortly:
as §2
This is another data set of the same source.

The test system of a further test is MCF-10A. Put shortly: as §2
For another test, the system named is HDQ-P1. Put shortly: as §2
Another test deals with MDA-MB-453. Put shortly: as §2
Another test has as its system BT-549. Put shortly:
as §2

A value given as a limit tells only on which side of the number the result lay.

On to `O=C(Nc1ccncc1)C(=O)c1cn(Cc2ccc(Cl)cc2)c2ccccc12` [Indibulin], for which the “EC50, CellTiter-Blue viability” value in the test with CAL-148 [1] is 5000 nM; with HCC1143 [2] it was 46.9 nM. Further, the “EC50, CellTox Green” value in the test with Hs578T stood at 3450 nM; in the test on CAL-85-1 it was 858 nM; in the test with MDA-MB-468, 1640 nM; in the test with MFM-223, 395 nM.

Turning to `c1ccc2c(CCNc3ccc(Nc4ccncc4)cc3)c[nH]c2c1` [Serdemetan], the results for the “EC50, CellTiter-Blue viability” value with CAL-148 [1] and in the test with HCC1599 [3] were 4530 nM and 1610 nM, respectively. Further, the figures for the “EC50, CellTox Green” value with CAL-148 [4], in the test with DU-4475 and in the test on MFM-223 were 2310 nM, 1810 nM and 7780 nM, respectively.

In the case of `CNC(=O)c1cccc(-c2ccc3c(N4CCOC[C@@H]4C)nc(N4CCOC[C@@H]4C)nc3n2)c1` [AZD2014], the “EC50, CellTox Green” value with CAL-148 [4] is 130 nM; in the test with MFM-223 it was greater than 10000 nM.

Take `Cc1cc(Nc2cc(CN3CCOCC3)c3nc(C)c(Cc4ccc(Cl)cc4F)n3n2)n[nH]1`: the “EC50, CellTiter-Blue viability” value in the test with HCC1143 [2] came out at 121 nM.

`COc1cc2/c(=N/c3ccc(Br)cc3F)nc[nH]c2cc1OCC1CCN(C)CC1` [Vandetanib]: the “EC50, CellTiter-Blue viability” value in the test with HCC1143 [2] is greater than 10000 nM.

With `COc1cc(O)c2c(c1)/C=C/C[C@H](O)[C@H](O)C(=O)/C=C\C[C@H](C)OC2=O` [(5Z)-7-Oxozeaenol], the “EC50, CellTox Green” value with CAL-148 [4] came to 75.8 nM; with BT-474, 4930 nM; with DU-4475 it was 759 nM; in the test on HCC1937 it was 305 nM; in the test on Hs578T, 253 nM; in the test with CAL-85-1 it was 66.5 nM. Further, the “EC50, CellTox Green” value in the test on MFM-223 was 277 nM.

`CCOC(=O)CCNc1cc(N2CCc3ccccc3CC2)nc(-c2ccccn2)n1` [GSK-J4]: the “EC50, CellTox Green” value with CAL-148 [4] was found to be 10900 nM; in the test on CAL-120, 20000 nM; in the test with BT-474 it was 2590 nM; with DU-4475, 5920 nM; in the test on HCC1937, 24100 nM; with MDA-MB-436, 21200 nM. Moreover, the “EC50, CellTox Green” value with Hs578T is 2280 nM; in the test with HCC1599 [5] it was 5440 nM; in the test on HCC1143 [6] it was 321 nM; with CAL-85-1, 4080 nM; in the test on MDA-MB-468, 8140 nM; in the test with MCF-10A, 18100 nM. The “EC50, CellTox Green” value was 17400 nM in the test on MFM-223, 9770 nM in the test on HDQ-P1, 22600 nM in the test on MDA-MB-453 and 17800 nM in the test with BT-549.

Turning to `CC(C)C[C@@H](C(=O)N[C@H](C(=O)OC1CCCC1)c1ccccc1)[C@H](O)C(=O)NO` [Tosedostat], the “EC50, CellTiter-Blue viability” value came out at 2750 nM in the test on CAL-148 [1] and 189 nM in the test with HCC1143 [2]. In addition, the “EC50, CellTox Green” value in the test with CAL-120 is 163 nM; in the test with BT-474 it was 1560 nM; in the test on MDA-MB-436, 9.14 nM; in the test on Hs578T, greater than 10000 nM; in the test on HCC1143 [6], 7200 nM; in the test on CAL-85-1, 140 nM. For the same compound, the “EC50, CellTox Green” value in the test on MDA-MB-468 amounted to 151 nM; in the test with HDQ-P1, 851 nM; in the test on BT-549, 1390 nM.

On to `COc1cc(OC2CCN(C)CC2)ccc1Nc1ncc2c(n1)n(C1CCCC1)c(=O)n2C` [AZ 3146], for which, in the test with CAL-148 [1], the “EC50, CellTiter-Blue viability” value was found to be 1990 nM. Moreover, the “EC50, CellTox Green” value with MDA-MB-436 and in the test with HCC1599 [5] was greater than 10000 nM throughout.

As for `O=C(/C=C/c1cccc(S(=O)(=O)Nc2ccccc2)c1)NO` [Belinostat], the “EC50, CellTiter-Blue viability” value was 322 nM in the test on CAL-148 [1], 348 nM in the test on HCC1599 [3] and 971 nM in the test on HCC1143 [2]. Besides, the “EC50, CellTox Green” value in the test with CAL-148 [4] was found to be 1070 nM; in the test with CAL-120, 1410 nM; with BT-474, 1600 nM; in the test with DU-4475 it was 519 nM; with Hs578T, 1260 nM; in the test on CAL-85-1, 1010 nM. Besides, the “EC50, CellTox Green” value in the test on MDA-MB-468 is 3690 nM; with MCF-10A, 30.4 nM; in the test on MFM-223, 745 nM; in the test with MDA-MB-453, greater than 10000 nM.

Regarding `CN(C)c1nc(N(C)C)nc(N(C)C)n1` [Altretamine], the “EC50, CellTiter-Blue viability” value with HCC1599 [3] was 2950 nM.

Regarding `CCc1c2c(nc3ccc(OC(=O)N4CCC(N5CCCCC5)CC4)cc13)-c1cc3c(c(=O)n1C2)COC(=O)[C@]3(O)CC` [Irinotecan], the “EC50, CellTiter-Blue viability” value with CAL-148 [1] was 1170 nM; in the test with HCC1599 [3], 692 nM; with HCC1143 [2] it was 2350 nM. The “EC50, CellTox Green” value with CAL-148 [4] was 304 nM; in the test with CAL-120, 5530 nM; in the test with Hs578T, greater than 10000 nM.

Take `N#Cc1ccc(COC[C@H]2O[C@@H](n3c(NCc4ccc(Cl)c(Cl)c4)nc4c(N)ncnc43)[C@H](O)[C@@H]2O)cc1`: the “EC50, CellTiter-Blue viability” value in the test on HCC1599 [3] was found to be 1350 nM. Further, the “EC50, CellTox Green” value in the test on MFM-223 turned out to be 1000 nM.
